Experiments:
Test in all cases: cells
Design in all cases: species or system panel of human cancer cell lines; Eurofins OncoPanel proliferation; nuclei count by high-content fluorescence imaging, 10-point dose response
CML-T1 = conditions: CML-T1, 72 h, cell count, 3 days
Outline: (§1)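 Ten half-log concentrations from 100 μM (0.1% DMSO max) applied one day post-seeding, 3-day exposure at 37°C; untreated time-zero plate for GI50. Readout is nuclear cell count by automated fluorescence imaging, giving EC50, IC50, GI50 and 0–10 activity area.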

SW1353 = conditions: Homo sapiens, SW1353, 72 h, cell count, 3 days
Outline: as §1

Calu6 = conditions: Homo sapiens, Calu-6, 72 h, cell count, 3 days
Outline: as §1

HEL-92-1-7 = conditions: Homo sapiens, HEL 92.1.7, 72 h, cell count, 3 days
Outline: as §1

NCIH441 = conditions: Homo sapiens, NCI-H441, 72 h, cell count, 3 days
Outline: as §1

KG-1 = conditions: Homo sapiens, KG-1, 72 h, cell count, 3 days
Outline: as §1

HeLa = conditions: Homo sapiens, HeLa, 72 h, cell count, 3 days
Outline: as §1

BFTC-905 = conditions: Homo sapiens, BFTC-905, 72 h, cell count, 3 days
Outline: as §1

Hs 688(A).T = conditions: 72 h, cell count, 3 days
Outline: as §1

HuTu 80 = conditions: Homo sapiens, HuTu80, 72 h, cell count, 3 days
Outline: as §1

C32TG = conditions: C32TG, 72 h, cell count, 3 days
Outline: as §1

SU-DHL-4 = conditions: Homo sapiens, SU-DHL-4, 72 h, cell count, 3 days
Outline: as §1

22Rv1 = conditions: Homo sapiens, 22Rv1, 72 h, cell count, 3 days
Outline: as §1

D341 Med = conditions: D341 Med, 72 h, cell count, 3 days
Outline: as §1

[1] = 50% of maximum possible response

In the case of `C[C@@H]1CC(=O)NN=C1c1ccc(NN=C(C#N)C#N)cc1` [levosimendan], the IC50 (CML-T1; [1]) is reported as 15.7 µM, the GI50 (CML-T1; corrected for time zero) is reported as 12.5 µM and the EC50 (CML-T1; curve inflection point) is reported as 15.7 µM. The IC50 (SW1353; [1]) was 72.8 µM, the GI50 (SW1353; corrected for time zero) was 60.9 µM and the EC50 (SW1353; curve inflection point) was 72.8 µM. For the same compound, the IC50 (Calu6; [1]) was > 100 µM, the GI50 (Calu6; corrected for time zero) was 91.5 µM and the EC50 (Calu6; curve inflection point) was > 100 µM. For the same compound, the IC50 (HEL-92-1-7; [1]) was 21.8 µM, the GI50 (HEL-92-1-7; corrected for time zero) was 17.9 µM and the EC50 (HEL-92-1-7; curve inflection point) was 21.8 µM. For the same compound, the IC50 (NCIH441; [1]) was > 100 µM, the GI50 (NCIH441; corrected for time zero) was 31.9 µM and the EC50 (NCIH441; curve inflection point) was > 100 µM. It also gave an IC50 (KG-1; [1]) of 21.7 µM, a GI50 (KG-1; corrected for time zero) of 13.5 µM and an EC50 (KG-1; curve inflection point) of 19.2 µM. The IC50 (HeLa; [1]) was 91.2 µM, the GI50 (HeLa; corrected for time zero) was 75 µM and the EC50 (HeLa; curve inflection point) was 91.2 µM. For the same compound, the IC50 (BFTC-905; [1]) was 13.4 µM, the GI50 (BFTC-905; corrected for time zero) was 12.4 µM and the EC50 (BFTC-905; curve inflection point) was 13.4 µM. For the same compound, the IC50 (Hs 688(A).T; [1]) was > 100 µM, the GI50 (Hs 688(A).T; corrected for time zero) was 10.5 µM and the EC50 (Hs 688(A).T; curve inflection point) was 16 µM. It also gave an IC50 (HuTu 80; [1]) of 16 µM, a GI50 (HuTu 80; corrected for time zero) of 14.2 µM and an EC50 (HuTu 80; curve inflection point) of 16 µM. For the same compound, the IC50 (C32TG; [1]) was 36.9 µM, the GI50 (C32TG; corrected for time zero) was 23.4 µM and the EC50 (C32TG; curve inflection point) was 36.9 µM. For the same compound, the IC50 (SU-DHL-4; [1]) was 4.77 µM, the GI50 (SU-DHL-4; corrected for time zero) was 3.31 µM and the EC50 (SU-DHL-4; curve inflection point) was 0.944 µM. For the same compound, the IC50 (22Rv1; [1]) was 55.6 µM, the GI50 (22Rv1; corrected for time zero) was 45.8 µM and the EC50 (22Rv1; curve inflection point) was 55.6 µM. The IC50 (D341 Med; [1]) was 73.8 µM, the GI50 (D341 Med; corrected for time zero) was 39.6 µM and the EC50 (D341 Med; curve inflection point) was 73.8 µM.

— publication PMC6576746, “Rational discovery of dual-indication multi-target PDE/Kinase inhibitor for precision anti-cancer therapy using structural systems pharmacology” (PLoS Computational Biology, 2019)
